Test [1] concerns the target T1, rat brain farnesyl protein transferase (Rattus norvegicus, UniProt Q02293+Q04631).
T1 construct: 40-fold purified rat brain farnesyl protein transferase; from tissue; host or cells: rat brain
In words: Protein:farnesyltransferase (PFT/FPT) inhibitory activity assay. Format: biochemical.

Test [2] concerns Ras farnesylation in H-ras-NIH3T3 cells. Nature of the test: Gel shift assay: inhibition of Ras farnesylation in H-ras-NIH3T3 cells. In kind it is cell-based. Particulars: 18-hour incubation, read-out: Inhibition of Ras Farnesylation (Minimum Effective Dose). The procedure: Twenty-four hours after planting 2×10^6 ras-transformed cells per treatment condition, the farnesylation inhibitor is added at varying concentrations. Following an 18-hour incubation period, cells are lysed in phosphate-buffered saline containing 1% Triton X-100, 0.5% sodium deoxycholate, and 0.1% SDS, pH 7.4 in the presence of several protease inhibitors (PMSF, antipain, leupeptin, pepstatin A, and aprotinin all at 1 μg/mL). Ras protein is immunoprecipitated from the supernatants by the addition of 3 μg v-H-ras Ab-2 (Y13-259 antibody from Oncogene Science). After overnight immunoprecipitation, 30 μL of a 50% protein G-Sepharose slurry (Pharmacia) is added followed by 45-minute incubation. Pellets are resuspended in 2× tris-glycine loading buffer (Novex) containing 5% B-mercaptoethanol and then denatured by 5 minutes boiling prior to electrophoresis on 14% Tris-glycine SDS gels. Using Western transfer techniques, proteins are transferred to nitrocellulose membranes followed by blocking in blocking buffer. Upon overnight incubation with primary antibody (pan-ras Ab-2 from Oncogene Science), an antimouse HRP conjugate secondary antibody (Amersham) is employed for detection of the ras protein. Blots are developed using ECL techniques (Amersham).
The data in Table 1 show farnesyl protein transferase inhibitory activity, and activity in the gel shift assay against ras protein of selected compounds of Formula I.

The mark [3] stands for this setting: Hepes (without 5 mM phosphate), read-out: Farnesyl Protein Transferase Inhibition, Hepes, IC50.
[4] abbreviates: Hepes/5 mM PO4^-3, pH 7.4, read-out: Farnesyl Protein Transferase Inhibition, Hepes/5 mM PO4^-3, IC50.

Structures can show the parent of a compound that is named as a salt. Where two headings read alike, the source gives them in different places.

In the case of `C=CCOC(=O)[C@H](Cc1c[nH]cn1)NC(=O)C(Cc1cccc2ccccc12)Cc1cccc2ccccc12` [Example 15, (S)-3-(1H-Imidazol-4-yl)-2-(3-naphthalen-1-yl-2-naphthalen-1-ylmethyl-propionylamino)-propionic acid, allyl ester], the IC50 in test [1] (setting [3]) stood at 400 nM; in test [1] (setting [4]), 200 nM. Besides, the minimal effective concentration in test [2] came out at 25 µM.
The like results for `N#CCCOC(=O)[C@H](Cc1c[nH]cn1)NC(=O)C(Cc1cccc2ccccc12)Cc1cccc2ccccc12` [Example 17, (S)-3-(1H-Imidazol-4-yl)-2-(3-naphthalen-1-yl-2-naphthalen-1-ylmethyl-propionylamino)-propionic acid, 2-cyanoethyl ester] were, in that order, 80 nM, 70 nM and 10 µM.
Take `COC(=O)[C@H](Cc1c[nH]cn1)NC(=O)C(Cc1csc2ccccc12)Cc1csc2ccccc12` [Example 39, (S)-2-(3-Benzo[b]thiophen-3-yl-2-benzo[b]thiophen-3-ylmethyl-propionylamino)-3-(1H-imidazol-4-yl)-propionic acid, methyl ester]: the IC50 is 1200 nM in test [1] (setting [3]) and 970 nM in test [1] (setting [4]).
For `CC(=O)NCCSC(=O)[C@H](Cc1c[nH]cn1)NC(=O)C(Cc1cccc2ccccc12)Cc1cccc2ccccc12` [Example 40, (S)-3-(1H-Imidazol-4-yl)-2-(3-naphthalen-1-yl-2-naphthalen-1-ylmethyl-propionylamino)-thiopropionic acid, S-(2-acetylamino-ethyl)ester], the IC50 amounted to 2600 nM in test [1] (setting [3]) and 3200 nM in test [1] (setting [4]).
On to `N#CCCNC(=O)[C@H](Cc1c[nH]cn1)NC(=O)C(Cc1cccc2ccccc12)Cc1cccc2ccccc12` [Example 41, (S)-N-[1-(2-Cyano-ethylcarbamoyl)-2-(1H-imidazol-4-yl)-ethyl]-3-naphthalen-1-yl-2-naphthalen-1-ylmethyl-propionamide], for which the IC50 came out at 970 nM in test [1] (setting [3]) and 710 nM in test [1] (setting [4]). In addition, the minimal effective concentration in test [2] was determined as 5 µM.
Turning to `O=C(N[C@@H](Cc1c[nH]cn1)C(=O)OCCO)C(Cc1cccc2ccccc12)Cc1cccc2ccccc12` [Example 42, (S)-3-(1H-Imidazol-4-yl)-2-(3-naphthalen-1-yl-2-naphthalen-1-ylmethyl-propionylamino)-propionic acid, 2-hydroxy-ethyl ester, trifluoroacetate salt], the figures for the IC50 in test [1] (setting [3]) and in test [1] (setting [4]) were 1800 nM and 1300 nM, respectively.
In the same order, the values of `CN(C)C(=O)[C@H](Cc1c[nH]cn1)NC(=O)C(Cc1cccc2ccccc12)Cc1cccc2ccccc12` [Example 43, (S)-N-[1-Dimethylcarbamoyl-2-(1H-imidazol-4-yl)-ethyl]-3-naphthalen-1-yl-2-naphthalen-1-ylmethyl-propionamide] are 5600 nM and 3800 nM.
On to `C#CCCOC(=O)[C@H](Cc1c[nH]cn1)NC(=O)C(Cc1cccc2ccccc12)Cc1cccc2ccccc12` [Example 44, (S)-3-(1H-Imidazol-4-yl)-2-(3-naphthalen-1-yl-2-naphthalen-1-ylmethyl-propionylamino)-propionic acid, but-3-ynyl ester, trifluoroacetate salt], for which the IC50 in test [1] (setting [3]) stood at 230 nM; in test [1] (setting [4]), 210 nM.
With `N#CCCOC(=O)[C@H](Cc1c[nH]cn1)NC(=O)C(CC1CCCC2CCCCC21)CC1CCCC2CCCCC21` (stereo partly drawn) [Example 45, (S)-2-[3-(Decahydro-naphthalen-1-yl)-2-(decahydro-naphthalen-1-ylmethyl)-propionylamino]-3-(1H-imidazol-4-yl)-propionic acid, 2-cyano-ethyl ester], the IC50 in test [1] (setting [3]) is 490 nM; in test [1] (setting [4]), 320 nM.
Consider `CCCNC(=O)[C@H](Cc1c[nH]cn1)NC(=O)C(Cc1cccc2ccccc12)Cc1cccc2ccccc12` [Example 46], for which the values for the IC50 in test [1] (setting [3]) and in test [1] (setting [4]) were 4900 nM and 5600 nM, respectively.
As to `O=C(N[C@@H](Cc1c[nH]cn1)C(=O)OCCn1ccnc1)C(Cc1cccc2ccccc12)Cc1cccc2ccccc12` [Example 47, (S)-3-[1H-Imidazol-4-yl)-2-(3-naphthalen-1-yl-2-naphthalen-1-ylmethyl-propionylamino)-propionic acid, 2-imidazol-1-yl-ethyl ester], the IC50 in test [1] (setting [3]) turned out to be 1100 nM; in test [1] (setting [4]), 1400 nM.
`C=CCCOC(=O)[C@H](Cc1c[nH]cn1)NC(=O)C(Cc1cccc2ccccc12)Cc1cccc2ccccc12` [Example 48, (S)-3-(1H-Imidazol-4-yl)-2-(3-naphthalen-1-yl-2-naphthalen-1-ylmethyl-propionylamino)-propionic acid, but-3-enyl ester]: the IC50 stood at 1200 nM in test [1] (setting [3]) and 1300 nM in test [1] (setting [4]).
In the same order, the values of `N#CCCOC(=O)[C@H](Cc1c[nH]cn1)NC(=O)C(Cc1cccc2c1CCCC2)Cc1cccc2c1CCCC2` [Example 49, (S)-3-(1H-Imidazol-4-yl)-2-[3-(5,6,7,8-tetrahydro-naphthalen-1-yl)-2-(5,6,7,8-tetrahydro-naphthalen-1-ylmethyl)-propionylamino]-propionic acid, 2-cyano-ethyl ester] are 290 nM and 370 nM.
Take `O=C(N[C@@H](Cc1c[nH]cn1)C(=O)NCCc1ccccc1)C(Cc1cccc2ccccc12)Cc1cccc2ccccc12` [Example 50]: the IC50 in test [1] (setting [3]) stood at 4800 nM; in test [1] (setting [4]), 6000 nM.
As for `N#CCCCOC(=O)[C@H](Cc1c[nH]cn1)NC(=O)C(Cc1cccc2ccccc12)Cc1cccc2ccccc12` [Example 54, (S)-3-(1H-Imidazol-4-yl)-2-(3-naphthalen-1-yl-2-naphthalen-1-ylmethyl-propionyiamino)-propionic acid, 3-cyano-propyl ester], the results for the IC50 in test [1] (setting [3]) and in test [1] (setting [4]) were 440 nM and 370 nM, respectively.
On to `CC(C)=CCOC(=O)[C@H](Cc1c[nH]cn1)NC(=O)C(Cc1cccc2ccccc12)Cc1cccc2ccccc12` [Example 55, (S)-3-(1H-Imidazol-4-yl)-2-(3-naphthalen-1-yl-2-naphthalen-1-ylmethyl-propionylamino)-propionic acid 3-methyl-but-2-enyl ester], for which the values for the IC50 in test [1] (setting [3]) and in test [1] (setting [4]) were 5300 nM and 4300 nM, respectively.
`COC(=O)[C@H](Cc1c[nH]cn1)NCC(Cc1cccc2ccccc12)Cc1cccc2ccccc12` [Example 56, (S)-3-(1H-Imidazol-4-yl)-2-(3-naphthalen-1-yl-2-naphthalen-1-ylmethyl-propylamino)-propionic acid methyl ester]: the IC50 in test [1] (setting [3]) stood at 370 nM; in test [1] (setting [4]), 360 nM.
With `COC(=O)COC(=O)[C@H](Cc1c[nH]cn1)NC(=O)C(Cc1cccc2ccccc12)Cc1cccc2ccccc12` [Example 57, (S)-3-(1H-Imidazol-4-yl)-2-(3-naphthalen-1-yl-2-naphthalen-1-ylmethyl-propionylamino)-propionic acid, methoxycarbonylmethyl ester], the IC50 in test [1] (setting [3]) was found to be 5500 nM; in test [1] (setting [4]), 4100 nM.
Regarding `N#CCOC(=O)[C@H](Cc1c[nH]cn1)NC(=O)C(Cc1cccc2ccccc12)Cc1cccc2ccccc12` [Example 58, (S )-3-(1H-Imidazol-4-yl)-2-(3-naphthalen-1-yl-2-naphthalen-1-ylmethyl-propionylamino)-propionic acid, cyanomethyl ester], the IC50 came out at 400 nM in test [1] (setting [3]) and 510 nM in test [1] (setting [4]).
Turning to `O=C(N[C@@H](Cc1c[nH]cn1)C(=O)OCCSSCCO)C(Cc1cccc2ccccc12)Cc1cccc2ccccc12` [Example 59, (S)-3-(1H-Imidazol-4-yl)-2-(3-naphthalen-1-yl-2-naphthalen-1-ylmethyl-propionylamino)-propionic acid, 2-(2-hydroxy-ethyldisulfanyl)-ethyl ester], the IC50 in test [1] (setting [3]) was determined as 1300 nM; in test [1] (setting [4]), 1000 nM.
Turning to `COCn1cncc1C[C@H](NC(=O)C(Cc1cccc2ccccc12)Cc1cccc2ccccc12)C(=O)OC` [Example 60, (S)-3-(3-Methoxymethyl-3H-imidazol-4-yl)-2-(3-naphthalen-1-yl-2-naphthalen-1-ylmethyl-propionylamino)-propionic acid, methyl ester], the IC50 was found to be 930 nM in test [1] (setting [3]) and 1000 nM in test [1] (setting [4]).
As for `OC[C@H](Cc1c[nH]cn1)NCC(Cc1cccc2ccccc12)Cc1cccc2ccccc12` [Example 62, (S)-3-(1H-Imidazol-4-yl)-2-(3-naphthalen-1-yl-2-naphthalen-1-ylmethyl-propylamino)-propan-1-ol], the IC50 came to 550 nM in test [1] (setting [3]) and 500 nM in test [1] (setting [4]).
For `CNC(=O)[C@H](Cc1c[nH]cn1)NCC(Cc1cccc2ccccc12)Cc1cccc2ccccc12` [Example 63, (S)-3-(1H-Imidazol-4-yl)-N-methyl-2-(3-naphthalen-1-yl-2-naphthalen-1-ylmethyl-propylamino)-propionamide], the IC50 in test [1] (setting [3]) came to 200 nM; in test [1] (setting [4]), 240 nM.
For the compound `CNC(=O)[C@H](Cc1cncn1C)NC(=O)C(Cc1cccc2ccccc12)Cc1cccc2ccccc12` [Example 64, (S)-N-[1-Methylcarbamoyl-2-(3-methyl-3H-imidazol-4-yl)-ethyl]-3-naphthalen-1-yl-2-naphthalen-1-ylmethyl-propionamide], the IC50 in test [1] (setting [3]) was 610 nM; in test [1] (setting [4]), 460 nM.

(Values after patent US6008372A, “Substituted dinaphthylmethyl and diheteroarylmethylacetyl histidine inhibitors of protein farnesyltransferase” (Warner-Lambert Company, priority 1998, dated 1999).)
